Assay results as given in ChEMBL document CHEMBL1157896, “A repurposing strategy identifies novel synergistic inhibitors of Plasmodium falciparum heat shock protein 90” (J Med Chem, 2010).
pIC50: −log10 of the molar value. Calls of active or inactive are those of the source. No cut-off for these calls is given here.

Assays:
Plasmodium falciparum [1] = test: Antimalarial activity against Plasmodium falciparum 3D7 infected in human erythrocytes after 48 hrs by flow-cytometry; assay type: functional, organism-based; conditions: 3D7, 48 h
Plasmodium falciparum [2] = test: Antimalarial activity against multidrug-resistant Plasmodium falciparum isolate 208432 infected in human erythrocytes after 48 hrs by flow-cytometry; assay type: functional, organism-based; conditions: isolate 208432, 48 h
Plasmodium falciparum [3] = test: Antimalarial activity against chloroquine-resistant Plasmodium falciparum W2 infected in human erythrocytes after 48 hrs by flow-cytometry; assay type: functional, organism-based; conditions: W2, 48 h
Plasmodium falciparum [4] = test: Displacement of bis-ANS from Plasmodium falciparum 3D7 Hsp90 expressed in Escherichia coli BL21(DE3) assessed as reduction in fluorescence at 100 uM after 30 min by fluorescent monochromator spectrophotometry; assay type: functional; design: scale not given: the % may be the effect or the level left
[5] = target: Heat shock protein HSP90 (Homo sapiens) (UniProt P07900+P08238); test: Displacement of bis-ANS from human Hsp90 assessed as reduction in fluorescence at 100 uM after 30 mins by fluorescent monochromator spectrophotometry; assay type: protein assay

NC(CP(=O)(O)O)C(=O)O (racemic)
pIC50 (Plasmodium falciparum [1]): 7.22 | pIC50 (Plasmodium falciparum [2]): 7.33 | pIC50 (Plasmodium falciparum [3]): 7.07 | Activity (Plasmodium falciparum [4]): > 70% | Activity [5]: inactive

C[C@@H]1CC[C@H]2[C@@H](C)C(=O)O[C@@H]3O[C@@]4(C)CC[C@@H]1[C@]32OO4 [ARTEMISININ]
pIC50 (Plasmodium falciparum [1]): 8.21 | pIC50 (Plasmodium falciparum [2]): 7.17 | pIC50 (Plasmodium falciparum [3]): 8.14

COc1ccc2c(c1)[nH]c1c(C)nccc12 [HARMINE]
pIC50 (Plasmodium falciparum [1]): 7.30 | pIC50 (Plasmodium falciparum [2]): 6.74 | pIC50 (Plasmodium falciparum [3]): 7.55 | Activity (Plasmodium falciparum [4]): > 70% | Activity [5]: inactive

OC(c1cc(C(F)(F)F)nc2c(C(F)(F)F)cccc12)C1CCCCN1 (stereo not given) [MEFLOQUINE]
pIC50 (Plasmodium falciparum [1]): 8.68 | pIC50 (Plasmodium falciparum [3]): 8.49
